“Also recorded” adds a separate entry of the source. Read-outs that look alike come from different tables or passages of the source.
Experiments:
normal cells = details: in words; no ref at the sentence; cited from earlier work
From the text: Development of metastasis provides the most serious challenge for cancer treatment and is responsible for most cancer related deaths. A number of recent studies have shown that ectopically expressed LPL is largely responsible for this process. Therefore, LPL presents itself as a promising target for drug development to prevent the metastatic activity of the cancer cells. It is also well known that inhibition of fascin, another actin-bundling protein, is a viable approach to block tumor metastasis.

[1] = target: T1, Ca^2+-bound EF (EF domain of LPL) (Homo sapiens, UniProt P13796); experiment: Surface plasmon resonance (SPR), peptides binding to immobilized EF
T1 construct: His-tag (with TEV protease cleavage site) (N, cleaved yes); made in house; host or cells: E. coli BL21 (DE3)
T1 sequence (P13796 1-82 limits assumed): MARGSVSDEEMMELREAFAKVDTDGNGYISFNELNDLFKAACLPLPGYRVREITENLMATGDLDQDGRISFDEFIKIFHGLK
Description: The binding between Ca^2+-bound LPL-EF and a synthetic peptide corresponding to H5 (Ac-[…]-NH2) was evaluated by SPR using a BIAcore X100 instrument (GE Healthcare) and was compared to other peptides including the cytotoxic peptide melittin, and the CaM-target CaMKI and smMLCK peptides. Peptides used here were purchased as synthetic peptides with >95% purity from Genscript (San Diego, CA). The EF construct was immobilized via its sole cysteine residue (Cys42) onto a CM5 sensor chip (GE Healthcare) using thiol-coupling. The running buffer contained 10 mM Tris-HCl pH 7.5, 150 mM KCl, 1 mM CaCl2, and 0.005% (v/v) Tween-20. Different concentrations of the peptide sample were injected at a flow rate of 30 μL/min with a contact time of 1 min at 25 °C. The BIAevaluation software 2.0 (GE Healthcare) was used to process the SPR sensorgrams and for curve-fitting to obtain the dissociation constants (Kd’s). Two different concentrations in each experiment were injected twice to obtain the fitting errors (SEM).
SPR measurements for the interactions between EF and various peptides. The affinity fittings […]
The response units at 4 seconds after starting the injection were used for CaMKIp due to the nonspecific binding seen later during the injection, while the response units at 4 seconds before stopping the injection were used for the […]
(1 picture or pasted object on this page, not shown here)

^15N-labeled EF = experiment: HSQC NMR titration of ^15N-labeled EF with peptide; assay type: binding, human; details: H5 peptide added to ^15N-labeled EF (Supplementary Fig. S8)
Description: The calcium-free samples of EF-H5, EF-H5-S5E, and EF contained 0.5–1.0 mM ^15N- or ^13C,^15N-labeled protein, 100 mM KCl, 20 mM Bis-Tris (pH 6.8), 1 mM EDTA, 0.03% NaN3, 10 mM ^2H-labelled dithiothreitol (^2H-DTT), and 0.5 mM 2,2-dimethyl-2- silapentane-5-sulfonate (DSS) in 99.99% D2O or 10% D2O/90% H2O. The calcium free non-labeled LPL-EF was also prepared in 99.99% D2O with the same buffer components. The calcium-bound form of those constructs were prepared in buffer containing ~1 mM ^15N- or ^13C,^15N-labelled protein, 100 mM KCl, 20 mM Bis-Tris (pH 6.8), 5 mM CaCl2, 0.03% NaN3, 0.5 mM DSS, and 10 mM ^2H-DTT in 99.99% D2O or 10% D2O/90% H2O. The calcium-bound non-labeled LPL-EF-H5 was also prepared in 99.99% D2O with the same buffer ingredients. DSS was used as a reference to obtain ^1H, ^15N and ^13C chemical shifts. All NMR spectra were processed with NMRPipe[71] and analyzed using NMRView[72].
All NMR experiments were performed with a Bruker Avance 700 or 600 MHz spectrometer at 25 °C. […] All NOESY experiments including three-dimensional ^15N-edited NOESY-HSQC and ^13C-edited NOESY-HSQC, and two-dimensional NOESY were measured with a mixing time of 120 ms. {^1H}-^15N heteronuclear NOE data were obtained using a 5 sec train of 120° proton pulses.

[2] = tested on: ^15N-labeled ABD2 (residues 384–627); experiment: NMR titration of ^15N-labeled ABD2 with peptide; assay type: binding, human; details: synthetic H5 peptide titrated into ^15N-labeled ABD2 (Supplementary Fig. S5b)
[3] = EF immobilized via Cys42 on CM5 chip, 10 mM Tris-HCl pH 7.5, 150 mM KCl, 1 mM CaCl2, 0.005% Tween-20, 25 °C, response at 4 seconds before stopping the injection, fitting error SEM, read-out: KD

Row | Molecule | Hemolysis and toxicity (normal cells) | Kd [1, 3] [nM] | HSQC spectral effect of H5 peptide on ^15N-labeled EF (^15N-labeled EF) | Kd ([1]; Ca^2+-bound EF, SPR, pH 7.5, 25 °C, read-out: Kd of H5 peptide for Ca^2+-bound EF (order of magnitude, discussion)) [nM] | Interaction with ABD2 (chemical shift changes) [2]
1 | CC[C@H](C)[C@H](NC(=O)CN)C(=O)NCC(=O)N[C@@H](C)C(=O)N[C@H](C(=O)N[C@@H](CC(C)C)C(=O)N[C@@H](CCCCN)C(=O)N[C@H](C(=O)N[C@@H](CC(C)C)C(=O)N[C@H](C(=O)N[C@H](C(=O)NCC(=O)N[C@@H](CC(C)C)C(=O)N1CCC[C@H]1C(=O)N[C@@H](C)C(=O)N[C@@H](CC(C)C)C(=O)N[C@H](C(=O)N[C@@H](CO)C(=O)N[C@@H](Cc1c[nH]c2ccccc12)C(=O)N[C@H](C(=O)N[C@@H](CCCCN)C(=O)N[C@@H](CCCNC(=N)N)C(=O)N[C@@H](CCCCN)C(=O)N[C@@H](CCCNC(=N)N)C(=O)N[C@@H](CCC(N)=O)C(=O)N[C@@H](CCC(N)=O)C(N)=O)[C@@H](C)CC)[C@@H](C)CC)[C@@H](C)O)[C@@H](C)O)C(C)C)C(C)C [Melittin, reference compound] | strong hemolytic peptide that is toxic to all normal cells | 158 |  |  | 
2 | Ac-STDVAKTFRKAINKKEGI-NH2 [H5p] |  | 3520 | intermediate exchange and resultant line broadening; also recorded: did not produce the same spectrum as EF-H5 | 1000 | no chemical shift changes were observed, indicating no interaction
